The subject of data set [1] is Oryctolagus cuniculus. Description: Toxicity in hyperlipidemic New Zealand Oryctolagus cuniculus (rabbit) assessed as morbidity at 5 to 15 mg/kg/day, po for 2 months. The class given is organism-based. Details: route oral. The conditions noted are these: in vivo.
Data set [2] deals with Oryctolagus cuniculus. Description: Toxicity in hyperlipidemic New Zealand Oryctolagus cuniculus (rabbit) assessed as histopathological examination of heart at 5 to 15 mg/kg/day, po for 2 months by hematoxylin-eosin staining analysis. The data set is classed as organism-based. Set-up: route oral. The conditions noted are these: in vivo.
Data set [3] has as its system Oryctolagus cuniculus. Kind of data set: Reduction in number of lipid droplets in liver cells of high fat-high cholesterol fed New Zealand Oryctolagus cuniculus (rabbit) at 10 to 15 mg/kg, po for 2 months by hematoxylin-eosin staining analysis. The data set is classed as functional, organism-based.
In data set [4] the test system is Oryctolagus cuniculus. Description: Toxicity in hyperlipidemic New Zealand Oryctolagus cuniculus (rabbit) assessed as blood urea nitrogen level at 15 mg/kg/day, po for 2 months (reference value: 7.25 +/- 1.46 mmol/l). The class given is organism-based. Set-up: route oral. To be noted: in vivo.
The test system of data set [5] is Oryctolagus cuniculus. Kind of data set: Toxicity in hyperlipidemic New Zealand Oryctolagus cuniculus (rabbit) assessed as effect on kidney coefficient at 5 to 15 mg/kg/day, po for 2 months. The class given is organism-based. Set-up: route oral. To be noted: in vivo.
Data set [6] deals with Oryctolagus cuniculus. Kind of data set: Antihyperlipidemic activity in high fat-high cholesterol fed New Zealand Oryctolagus cuniculus (rabbit) assessed as high-density lipoprotein-cholesterol level in blood at 10 mg/kg, po for 40 days (reference value: 0.69 +/- 0.02 mmol/l). The data set is classed as functional.
Data set [7] concerns Oryctolagus cuniculus. Description: Antihyperlipidemic activity in high fat-high cholesterol fed New Zealand Oryctolagus cuniculus (rabbit) assessed as low-density lipoprotein-cholesterol level in blood at 5 mg/kg, po for 40 days (reference value: 3.47 +/- 0.44 mmol/l). The data set is classed as functional.
For data set [8], the system named is Oryctolagus cuniculus. Description: Toxicity in high fat-high cholesterol fed New Zealand Oryctolagus cuniculus (rabbit) assessed as body weight at 15 mg/kg, po for 40 days. Details: dose 15 mg/kg, route oral. The conditions noted are these: in vivo, 960 h. The data set is classed as organism-based.
The target in data set [9] is T1, 3-hydroxy-3-methylglutaryl-coenzyme A reductase (Mus musculus) (UniProt Q01237).
T1 sequence (whole entry): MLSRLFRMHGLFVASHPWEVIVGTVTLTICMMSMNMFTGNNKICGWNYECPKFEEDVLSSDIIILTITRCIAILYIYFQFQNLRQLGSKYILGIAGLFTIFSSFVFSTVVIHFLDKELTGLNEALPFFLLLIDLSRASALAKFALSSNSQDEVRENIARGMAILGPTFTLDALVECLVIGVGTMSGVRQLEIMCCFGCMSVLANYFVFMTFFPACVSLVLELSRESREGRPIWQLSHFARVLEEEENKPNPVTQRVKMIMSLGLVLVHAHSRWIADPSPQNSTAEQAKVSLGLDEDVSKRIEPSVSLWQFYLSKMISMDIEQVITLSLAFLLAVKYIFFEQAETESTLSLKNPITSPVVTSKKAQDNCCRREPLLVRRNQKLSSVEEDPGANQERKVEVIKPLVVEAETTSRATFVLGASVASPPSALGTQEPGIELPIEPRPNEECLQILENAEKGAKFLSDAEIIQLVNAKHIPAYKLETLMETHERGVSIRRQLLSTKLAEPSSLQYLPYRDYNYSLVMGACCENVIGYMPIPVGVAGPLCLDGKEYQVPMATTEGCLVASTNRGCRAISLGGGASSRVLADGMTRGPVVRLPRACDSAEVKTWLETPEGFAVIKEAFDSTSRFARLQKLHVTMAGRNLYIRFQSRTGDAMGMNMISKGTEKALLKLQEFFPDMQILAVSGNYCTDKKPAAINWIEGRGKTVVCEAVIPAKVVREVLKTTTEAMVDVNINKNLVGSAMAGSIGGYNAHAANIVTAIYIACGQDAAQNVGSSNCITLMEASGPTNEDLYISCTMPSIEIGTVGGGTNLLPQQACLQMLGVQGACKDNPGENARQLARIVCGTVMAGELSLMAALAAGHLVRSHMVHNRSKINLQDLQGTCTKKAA
Description: Inhibition of HMGR isolated from Mus musculus (mouse) liver assessed as change in NADPH at 8 umol/l by HPLC analysis.

The subject of data set [10] is Oryctolagus cuniculus. Description: Antihyperlipidemic activity in high fat-high cholesterol fed New Zealand Oryctolagus cuniculus (rabbit) assessed as triglyceride level in blood at 10 mg/kg, po for 40 days (reference value: 2.07 +/- 0.33 mmol/l). The data set is classed as functional.
Data set [11] relates to Oryctolagus cuniculus. Description: Antihyperlipidemic activity in high fat-high cholesterol fed New Zealand Oryctolagus cuniculus (rabbit) assessed as high-density lipoprotein-cholesterol level in blood at 15 mg/kg, po for 40 days (reference value: 0.67 +/- 0.22 mmol/l). The data set is classed as functional.
Data set [12] is described as follows: Toxicity in Mus musculus Kunming (mouse). The class given is organism-based. To be noted: in vivo.
The test system of data set [13] is Oryctolagus cuniculus. Description: Toxicity in hyperlipidemic New Zealand Oryctolagus cuniculus (rabbit) assessed as alanine aminotransferase level at 5 mg/kg/day, po for 2 months (reference value: 92.14 +/- 14.3 U/l). The data set is classed as organism-based. Set-up: route oral. To be noted: in vivo.
The test system of data set [14] is Oryctolagus cuniculus. Description: Toxicity in hyperlipidemic New Zealand Oryctolagus cuniculus (rabbit) assessed as blood urea nitrogen level at 5 mg/kg/day, po for 2 months (reference value: 7.25 +/- 1.46 mmol/l). The class given is organism-based. Set-up: route oral. To be noted: in vivo.
The test system of data set [15] is Oryctolagus cuniculus. Description: Antihyperlipidemic activity in high fat-high cholesterol fed New Zealand Oryctolagus cuniculus (rabbit) assessed as triglyceride level in blood at 15 mg/kg, po for 40 days (reference value: 2.11 +/- 0.43 mmol/l). The data set is classed as functional.
Data set [16] relates to Oryctolagus cuniculus. Description: Toxicity in hyperlipidemic New Zealand Oryctolagus cuniculus (rabbit) assessed as alanine aminotransferase level at 15 mg/kg/day, po for 2 months (reference value: 92.14 +/- 14.3 U/l). To be noted: in vivo. The class given is organism-based. Details: route oral.
The subject of data set [17] is Oryctolagus cuniculus. Description: Toxicity in hyperlipidemic New Zealand Oryctolagus cuniculus (rabbit) assessed as histopathological examination of liver at 5 to 15 mg/kg/day, po for 2 months by hematoxylin-eosin staining analysis. The data set is classed as organism-based. Set-up: route oral. The conditions noted are these: in vivo.
For data set [18], the system named is Oryctolagus cuniculus. Kind of data set: Reduction in hepatic steatosis and appearance of inflammatory cell in high fat-high cholesterol fed New Zealand Oryctolagus cuniculus (rabbit) at 5 mg/kg, po for 2 months by hematoxylin-eosin staining analysis. The data set is classed as functional, organism-based. Set-up: dose 5 mg/kg.

These results are taken from ChEMBL document CHEMBL3046105, “Synthesis and antihyperlipidemic efficiency of berberine-based HMG-CoA reductase inhibitor” (Med Chem Res, 2012).

The term inhibition denotes the percentage by which the read-out fell short of the control. Broadly, the LD50 is the dose at which mortality reaches 50%.

Active and inactive are the calls of the source. No cut-off for these calls is given here.

Turning to `CCCCCCCCCCCCCCCCc1c2c(OC)c(OC)ccc2cc2[n+]1CCc1cc3c(cc1-2)OCO3.[Cl-]` [8-HEXADECYL-BERBERINE CHLORIDE], the Activity result was “Non-toxic” with Oryctolagus cuniculus [1]; “Non-toxic” in the data set with Oryctolagus cuniculus [2]; 4.36 mmol/L in the data set with Oryctolagus cuniculus [4]; “Non-toxic” in the data set on Oryctolagus cuniculus [5]; 720000 nmol/L with Oryctolagus cuniculus [6]; 2.67e+06 nmol/L with Oryctolagus cuniculus [7]. Also, the Activity entry is “Non-toxic” with Oryctolagus cuniculus [8]; 1.89e+06 nmol/L with Oryctolagus cuniculus [10]; 750000 nmol/L in the data set on Oryctolagus cuniculus [11]; 82.36 U/L with Oryctolagus cuniculus [13]; 5.45 mmol/L in the data set with Oryctolagus cuniculus [14]; 1.58e+06 nmol/L in the data set on Oryctolagus cuniculus [15]. The Activity with Oryctolagus cuniculus [16] is 64.63 U/L; with Oryctolagus cuniculus [17] it was “Non-toxic”. Further, the inhibition entry with Oryctolagus cuniculus [3] and in the data set on Oryctolagus cuniculus [18] was “Active” in each case. In addition, the inhibition in data set [9] was determined as 42.7%. Moreover, in data set [12], the LD50 was greater than 1000 mg/kg.
